The results in this text go back to the SangsterLogP compilation.

Regarding `CCS(=O)c1sc(C(C)=O)c(C)c1[N+](=O)[O-]` (configuration not stated), the logP – broadly, the decadic logarithm of the partition coefficient of the neutral form, usually between octanol and water – was 2.81.

Regarding `CS(=O)c1sccc1[N+](=O)[O-]` (configuration not stated), the logP was found to be 1.69.

`CS(=O)c1cccs1` (configuration not stated) yielded a logP of 0.91.

`CCS(=O)c1ccc(C(C)=O)s1` (configuration not stated) showed a log partition coefficient (logP) of 1.31.

Consider `COc1c(C#N)sc(S(C)=O)c1C#N` (configuration not stated), for which the logP turned out to be 2.02.

`CCCS(=O)c1sc(C#N)c(Cl)c1C#N` (configuration not stated): the logP was 2.95.

`CC(=O)c1sc(S(C)=O)c(-c2ccc(Cl)cc2)c1N` (configuration not stated) displayed a logP of 3.18.

`CCCCS(=O)c1sc(C#N)cc1C#N` (configuration not stated): the logP stood at 2.64.

As for `Cc1c(C#N)sc(S(C)(=O)=O)c1-c1ccc(Cl)cc1`, the logP came to 3.8.

Regarding `CCS(=O)c1sc(C#N)cc1C#N` (configuration not stated), the logP was found to be 1.78.

For the compound `CCS(=O)c1sc(C(C)=O)c(C)c1C#N` (configuration not stated), the logP came out at 2.22.

`CCS(=O)c1sc(Cl)cc1C#N` (configuration not stated) registered a logP of 2.31.

`CCCS(=O)c1sccc1[N+](=O)[O-]` (configuration not stated) registered a logP of 2.52.

Consider `CCS(=O)c1sc(C#N)c(OC)c1C#N` (configuration not stated), for which the logP stood at 2.35.

In turn, `CCS(=O)c1sc(C#N)c(C)c1C(C)=O` (configuration not stated) yielded a logP of 2.22.

In the case of `CCS(=O)c1sc(C(C)=O)c(Cl)c1C#N` (configuration not stated), the logP was found to be 2.64.

`CS(=O)c1sccc1Br` (configuration not stated) gave a logP of 1.71.

In turn, `CC(=O)c1sc(S(C)=O)c(-c2ccc(Cl)cc2)c1C` (configuration not stated) yielded a logP of 3.82.

For `CS(=O)c1sccc1C#N` (configuration not stated), the log partition coefficient (logP) was 0.96.

As to `CCS(=O)c1sccc1[N+](=O)[O-]` (configuration not stated), the logP is 2.06.

Compound `CS(=O)c1ccc([N+](=O)[O-])s1` (configuration not stated) registered a logP of 1.4.

`CS(=O)c1sc(C#N)cc1C#N` (configuration not stated) had a logP of 1.31.

Compound `CCS(=O)c1sc(C(C)=O)c(N)c1C#N` (configuration not stated) gave a logP of 1.82.

Compound `CCOC(=O)c1cc(C#N)c(S(C)=O)s1` (configuration not stated) came in with a logP of 2.27.

For `CS(=O)c1ccsc1` (configuration not stated), the logP amounted to 0.91.

`CS(=O)c1sc(C#N)c(Cl)c1C#N` (configuration not stated) gave a logP of 2.15.

The compound `CCCCS(=O)c1sc(C#N)c(Cl)c1C#N` (configuration not stated) returned a logP of 3.44.

For `CCCS(=O)c1sc(C#N)cc1C#N` (configuration not stated), the logP stood at 2.18.

`Cc1csc(S(C)=O)c1[N+](=O)[O-]` (configuration not stated) gave a logP of 2.19.

For the compound `CC(=O)c1sc(S(C)=O)c(C#N)c1-c1ccc(Cl)cc1` (configuration not stated), the logP came to 3.31.

The compound `Cc1sc(S(C)=O)c([N+](=O)[O-])c1C` (configuration not stated) returned a logP of 2.65.

Consider `CS(=O)c1scc(-c2ccccc2)c1[N+](=O)[O-]` (configuration not stated), for which the logP was found to be 3.2.
